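Tested at 5 concentrations; 48 h exposure; 96-well plates; endpoints linearly interpolated, else capped at highest concentration. Definition used: TGI = concentration required for complete inhibition of growth.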
What was measured:
Assay in all cases: inhibition of tumour cell growth, NCI panel, 48 h
MDA-MB-231 breast = system: MDA-MB-231 breast
CAKI-1 renal = system: CAKI-1 renal
RPMI-8226 leukemia = system: RPMI-8226 leukemia
CCRF-CEM leukemia = system: CCRF-CEM leukemia
U251 CNS = system: U251 CNS
NCI-H226 lung = system: NCI-H226 lung
SK-MEL-28 melanoma = system: SK-MEL-28 melanoma
A498 renal = system: A498 renal
PC-3 prostate = system: PC-3 prostate
MDA-MB-435 = system: MDA-MB-435
HCC-2998 colon = system: HCC-2998 colon
OVCAR-4 ovarian = system: OVCAR-4 ovarian
ACHN renal = system: ACHN renal
HS 578T breast = system: HS 578T breast
M14 melanoma = system: M14 melanoma
UACC-62 melanoma = system: UACC-62 melanoma
OVCAR-8 ovarian = system: OVCAR-8 ovarian
HCT-15 colon = system: HCT-15 colon
UO-31 renal = system: UO-31 renal
UACC-257 melanoma = system: UACC-257 melanoma
SR leukemia = system: SR leukemia
T-47D breast = system: T-47D breast
HT29 colon = system: HT29 colon
SF-539 CNS = system: SF-539 CNS
NCI/ADR-RES ovarian = system: NCI/ADR-RES ovarian
NCI-H460 lung = system: NCI-H460 lung
SF-268 CNS = system: SF-268 CNS
OVCAR-3 ovarian = system: OVCAR-3 ovarian
BT-549 breast = system: BT-549 breast
HCT-116 colon = system: HCT-116 colon
COLO 205 colon = system: COLO 205 colon
SF-295 CNS = system: SF-295 CNS
786-0 renal = system: 786-0 renal
SW-620 colon = system: SW-620 colon
SNB-75 CNS = system: SNB-75 CNS
LOX IMVI melanoma = system: LOX IMVI melanoma
NCI-H23 lung = system: NCI-H23 lung
KM12 colon = system: KM12 colon
HOP-62 NSCLC = system: HOP-62 NSCLC
TK-10 renal = system: TK-10 renal
DU-145 prostate = system: DU-145 prostate
EKVX NSCLC = system: EKVX NSCLC
OVCAR-5 ovarian = system: OVCAR-5 ovarian
MOLT-4 leukemia = system: MOLT-4 leukemia
SK-MEL-5 melanoma = system: SK-MEL-5 melanoma
MDA-N = system: MDA-N
SNB-19 CNS = system: SNB-19 CNS
SK-OV-3 ovarian = system: SK-OV-3 ovarian
NCI-H522 lung = system: NCI-H522 lung
RXF 393 renal = system: RXF 393 renal
SN12C renal = system: SN12C renal
K-562 leukemia = system: K-562 leukemia
HL-60(TB) leukemia = system: HL-60(TB) leukemia
IGROV1 ovarian = system: IGROV1 ovarian
SK-MEL-2 melanoma = system: SK-MEL-2 melanoma
MCF7 breast = system: MCF7 breast
MALME-3M melanoma = system: MALME-3M melanoma
A549 NSCLC = system: A549 NSCLC
HOP-92 NSCLC = system: HOP-92 NSCLC

Cc1ccc(S(=O)(=O)N(CC(O)COc2ccccc2)c2ccccc2Cl)cc1 (stereo not given)
TGI (MDA-MB-231 breast): 29.3 µM | TGI (CAKI-1 renal): 44.3 µM | TGI (RPMI-8226 leukemia): 30.4 µM | TGI (CCRF-CEM leukemia): 40.4 µM | TGI (U251 CNS): 29.2 µM | TGI (NCI-H226 lung): 32.3 µM | TGI (SK-MEL-28 melanoma): 29.1 µM | TGI (A498 renal): 35 µM | TGI (PC-3 prostate): 30.8 µM | TGI (MDA-MB-435): 31.7 µM | TGI (HCC-2998 colon): 37 µM | TGI (OVCAR-4 ovarian): 26.1 µM | TGI (ACHN renal): 33.7 µM | TGI (HS 578T breast): 26.4 µM | TGI (M14 melanoma): 31 µM | TGI (UACC-62 melanoma): 21.5 µM | TGI (OVCAR-8 ovarian): 33.5 µM | TGI (HCT-15 colon): 29.3 µM | TGI (UO-31 renal): 24.8 µM | TGI (UACC-257 melanoma): 29.3 µM | TGI (SR leukemia): 35.1 µM | TGI (T-47D breast): 69.7 µM | TGI (HT29 colon): 31.9 µM | TGI (SF-539 CNS): 33.2 µM | TGI (NCI/ADR-RES ovarian): 37.8 µM | TGI (NCI-H460 lung): 36.2 µM | TGI (SF-268 CNS): 35.7 µM | TGI (OVCAR-3 ovarian): 42.1 µM | TGI (BT-549 breast): 31.4 µM | TGI (HCT-116 colon): 27.7 µM | TGI (COLO 205 colon): 34 µM | TGI (SF-295 CNS): 43.5 µM | TGI (786-0 renal): 32.4 µM | TGI (SW-620 colon): 36.6 µM | TGI (SNB-75 CNS): 41.7 µM | TGI (LOX IMVI melanoma): 38.8 µM | TGI (NCI-H23 lung): 31.1 µM | TGI (KM12 colon): 30.5 µM | TGI (HOP-62 NSCLC): 34.8 µM | TGI (TK-10 renal): 29.3 µM | TGI (DU-145 prostate): 57.5 µM | TGI (EKVX NSCLC): 31.8 µM | TGI (OVCAR-5 ovarian): 51 µM | TGI (MOLT-4 leukemia): 52.9 µM | TGI (SK-MEL-5 melanoma): 27.8 µM | TGI (MDA-N): 33.2 µM | TGI (SNB-19 CNS): 39.5 µM | TGI (SK-OV-3 ovarian): 52 µM | TGI (NCI-H522 lung): 25.1 µM | TGI (RXF 393 renal): 32 µM | TGI (SN12C renal): 29.4 µM | TGI (K-562 leukemia): 36.1 µM | TGI (HL-60(TB) leukemia): 67.8 µM | TGI (IGROV1 ovarian): 25.1 µM | TGI (SK-MEL-2 melanoma): 27 µM | TGI (MCF7 breast): 58.5 µM | TGI (MALME-3M melanoma): 29.2 µM | TGI (A549 NSCLC): 27.9 µM

OCC1OC(N2CCN(C3OC(CO)C(O)C(O)C3O)CC2)C(O)C(O)C1O (stereo not given)
TGI (MDA-MB-231 breast): > 100 µM | TGI (CAKI-1 renal): > 100 µM | TGI (RPMI-8226 leukemia): > 100 µM | TGI (U251 CNS): > 100 µM | TGI (NCI-H226 lung): > 100 µM | TGI (SK-MEL-28 melanoma): > 100 µM | TGI (A498 renal): > 100 µM | TGI (PC-3 prostate): > 100 µM | TGI (MDA-MB-435): > 100 µM | TGI (HCC-2998 colon): > 100 µM | TGI (OVCAR-4 ovarian): > 100 µM | TGI (HOP-92 NSCLC): > 100 µM | TGI (ACHN renal): > 100 µM | TGI (HS 578T breast): > 100 µM | TGI (M14 melanoma): > 100 µM | TGI (UACC-62 melanoma): > 100 µM | TGI (OVCAR-8 ovarian): > 100 µM | TGI (HCT-15 colon): > 100 µM | TGI (UO-31 renal): > 100 µM | TGI (UACC-257 melanoma): > 100 µM | TGI (SR leukemia): > 100 µM | TGI (T-47D breast): > 100 µM | TGI (HT29 colon): > 100 µM | TGI (SF-539 CNS): > 100 µM | TGI (NCI/ADR-RES ovarian): > 100 µM | TGI (NCI-H460 lung): > 100 µM | TGI (SF-268 CNS): > 100 µM | TGI (OVCAR-3 ovarian): > 100 µM | TGI (BT-549 breast): > 100 µM | TGI (HCT-116 colon): > 100 µM | TGI (COLO 205 colon): > 100 µM | TGI (SF-295 CNS): > 100 µM | TGI (786-0 renal): > 100 µM | TGI (SW-620 colon): > 100 µM | TGI (SNB-75 CNS): > 100 µM | TGI (LOX IMVI melanoma): > 100 µM | TGI (NCI-H23 lung): > 100 µM | TGI (KM12 colon): > 100 µM | TGI (HOP-62 NSCLC): > 100 µM | TGI (TK-10 renal): > 100 µM | TGI (DU-145 prostate): > 100 µM | TGI (EKVX NSCLC): > 100 µM | TGI (OVCAR-5 ovarian): > 100 µM | TGI (MOLT-4 leukemia): > 100 µM | TGI (SK-MEL-5 melanoma): > 100 µM | TGI (MDA-N): > 100 µM | TGI (SNB-19 CNS): > 100 µM | TGI (SK-OV-3 ovarian): > 100 µM | TGI (NCI-H522 lung): > 100 µM | TGI (RXF 393 renal): > 100 µM | TGI (SN12C renal): > 100 µM | TGI (K-562 leukemia): > 100 µM | TGI (IGROV1 ovarian): > 100 µM | TGI (SK-MEL-2 melanoma): > 100 µM | TGI (MCF7 breast): > 100 µM | TGI (MALME-3M melanoma): > 100 µM | TGI (A549 NSCLC): > 100 µM

Reference: PubChem BioAssay (NCI)
